System: hPSCs (H9 hESCs, IMR90C4 and CS03n2 iPSCs)
Test: Differentiation of hPSCs to NCSCs (p75-NGFR/HNK1 immunocytochemistry, flow cytometry)
Assay type: cell-based, human
Conditions: CHIR99021 increased to 2 μM in E6-CSF, 15 days
Procedure: We first assessed the capability of E6, a reduced factor medium, to support differentiation of H9 human embryonic stem cells (hESCs) and IMR90C4 and CS03n2 induced pluripotent stem cells (iPSCs) to NCSCs. H9 hESCs were cultured for 15 days in E6 medium supplemented with heparin and pathway modulators previously implicated in hPSC differentiation to NCSCs (48): 1 μM CHIR99021, a GSK3β inhibitor to promote WNT signaling; 10 μM SB431543, an ALK5 antagonist to inhibit Activin/Nodal/TGFβ signaling; and 10 ng/mL FGF2 (E6-CSF).
To examine the effects of BMP inhibition on hPSC differentiation to NCSCs in minimal medium, E6-CSF medium was supplemented with 1 μM dorsomorphin, a BMP type I receptor inhibitor, to generate E6-CSFD.
One day prior to initiating NCSC differentiation, hPSCs maintained in E8 medium were singularized using Accutase and seeded at 9.1×10^4 cells/cm^2 onto Matrigel coated plates with E8+10 μM Y27632. […]
Cells were fixed fifteen minutes at room temperature with either 4% paraformaldehyde (PFA) or 100% ice-cold methanol depending on antibody staining conditions. Cells were rinsed three times in PBS without Ca^2+/Mg^2+ and stored at 4° C. in PBS until ready to stain. […]

## Cc1c[nH]c(-c2cnc(NCCNc3ccc(C#N)cn3)nc2-c2ccc(Cl)cc2Cl)n1 [CHIR99021]
  induction of p75-NGFR expression: did not aid in inducing p75-NGFR expression
